The structures appear in SMILES notation. pKi: −log10 of the molar value.

For orientation: pKi means the Ki on a negative log10 scale, so that one unit is a factor of ten. Higher therefore signals a low Ki.

Experiment [1] has as its target T1, vanilloid receptor (VR1), human VR1 gene (Homo sapiens, UniProt Q8NER1).
T1 construct: expressed in transfected cells; host or cells: CHO K1 cells (ECACC), stably transfected
Description: FLIPR Ca2+ influx assay on CHO K1 cells transfected with the VR1 gene, capsaicin stimulus (Pharmacological method II). Conditions: human, Ki by Cheng-Prusoff, ne = no effect, no response observed. The format is cell-based. On the procedure: In addition, compounds according to the invention of the general formulae I, Ia, Ib, Ic, and Id, may be preferred which in the FLIPR assay with CHO K1 cells, which have been transfected with the human VR1 gene, in a concentration of less than 2000 nM, preferably of less than 1000 nM, particularly preferably of less than 300 nM, very particularly preferably of less than 100 nM, still more preferably of less than 75 nM, further preferably of less than 50 nM and most preferably of less than 10 nM, bring about a 50 percent displacement of capsaicin, which is present in a concentration of 100 nM. In this FLIPR assay, the influx of Ca^2+ is quantified with the assistance of a Ca^2+-sensitive dye (type Fluo-4, Molecular Probes Europe BV, Leiden, Netherlands) in a Fluorescent Imaging Plate Reader (FLIPR, Molecular Devices, Sunnyvale, USA) as described below.
II. Functional Investigations on Vanilloid Receptor (VR1)
The agonistic or antagonistic action of the substances to be investigated on the vanilloid receptor (VR1) may also be determined with the following assay. According to this assay, the influx of Ca^2+ through the channel is quantified with the assistance of a Ca^2+-sensitive dye (type Fluo-4, Molecular Probes Europe BV, Leiden, Netherlands) in a Fluorescent Imaging Plate Reader (FLIPR, Molecular Devices, Sunnyvale, USA).
Chinese hamster ovary cells (CHO K1 cells, European Collection of Cell Cultures (ECACC), Great Britain) are stably transfected with the VR1 gene. For functional investigations, these cells are plated out onto poly-D-lysine-coated, black 96-hole plates with a clear base (BD Biosciences, Heidelberg, Germany) at a density of 25,000 cells/hole. The cells are incubated overnight at 37° C. and 5% CO2 in a culture medium (Ham's Nutrient Mixture F12, 10 vol. % FCS (foetal calf serum), 18 μg/mL L-proline). On the following day, the cells are incubated with Fluo-4 (Fluo-4 2 μM, Pluronic F127 0.01 vol. %, Molecular Probes in HBSS (Hank's buffered saline solution), Gibco Invitrogen GmbH, Karlsruhe, Germany) for 30 minutes at 37° C. The plates are then washed 3 times with HBSS buffer and, after a further 15 minutes' incubation at room temperature, used for Ca^2+ measurement in the FLIPR. Ca^2+-dependent fluorescence is here measured before and after the addition of the substances to be investigated (wavelength λex=488 nm, λem=540 nm).
Quantification proceeds by measuring the highest fluorescence intensity (FC, fluorescence counts) over time.
The FLIPR protocol consists of 2 additions of substance. The substances to be tested (10 μM) are firstly pipetted onto the cells and Ca^2+ influx is compared with the control (capsaicin 10 μM) (% activation relative to the Ca^2+ signal after addition of 10 μM of capsaicin). After 5 minutes' incubation, 100 nM of capsaicin are added and the influx of Ca^2+ is likewise determined.
The percentage inhibition in comparison with the maximum achievable inhibition with 10 μM capsaicin is calculated.
On the basis of the percentage displacement by different concentrations of the compounds to be tested of the general formula I, IC50 inhibition concentrations which bring about 50% displacement of capsaicin were calculated. Ki values for the test substances were obtained by conversion using the Cheng-Prusoff equation (Cheng, Prusoff; Biochem. Pharmacol. 22, 3099-3108, 1973).

Experiment [2] concerns the target T2, vanilloid receptor 1 (VR1/TRPV1) of the rat species (Rattus norvegicus, UniProt O35433).
T2 construct: The spinal column is removed from decapitated rats; endogenous in cells; host or cells: primary cells dissociated from rat dorsal root ganglia, cultured 2-3 days with NGF
Description: FLIPR Ca2+ influx assay on rat dorsal root ganglia cells, capsaicin stimulus (Pharmacological method I). The format is cell-based. Conditions: Ki by Cheng-Prusoff. An excerpt: I. Functional Investigation on Vanilloid Receptor 1 (VR1/TRPV1 Receptor)
The agonistic or antagonistic action of the substances to be investigated on the vanilloid receptor 1 (VR1/TRPV1) of the rat species may be determined with the following assay. According to this assay, the influx of Ca^2+ through the receptor channel is quantified with the assistance of a Ca^2+-sensitive dye (type Fluo-4, Molecular Probes Europe BV, Leiden, Netherlands) in a Fluorescent Imaging Plate Reader (FLIPR, Molecular Devices, Sunnyvale, USA).
Complete medium: 50 mL HAMS F12 Nutrient Mixture (Gibco Invitrogen GmbH, Karlsruhe, Germany) with 10 vol. % FCS (foetal calf serum, Gibco Invitrogen GmbH, Karlsruhe, Germany, heat-inactivated); 2 mM L-glutamine (Sigma, Munich, Germany); 1 wt. % AA solution (antibiotic/antimycotic solution, PAA, Pasching, Austria) and 25 ng/ml NGF medium (2.5 S, Gibco Invitrogen GmbH, Karlsruhe, Germany)
Cell culture plate: poly-D-lysine-coated, black 96-hole plates with clear base (96 well black/clear plate, BD Biosciences, Heidelberg, Germany) are additionally coated with laminin (Gibco Invitrogen GmbH, Karlsruhe, Germany), by diluting laminin to a concentration of 100 μg/mL with PBS (Ca—Mg-free PBS, Gibco Invitrogen GmbH, Karlsruhe, Germany). Aliquots with a concentration of 100 μg/mL of laminin are taken and stored at −20° C. The aliquots are diluted with PBS in the ratio of 1:10 to 10 μg/mL of laminin and 50 μL of the solution is pipetted into each well of the cell culture plate. The cell culture plates are incubated for at least two hours at 37° C., the supernatant solution is aspirated and the wells are each washed twice with PBS. […]
The spinal column is removed from decapitated rats and this is placed directly in cold HBSS buffer (Hank's buffered saline solution, Gibco Invitrogen GmbH, Karlsruhe, Germany), i.e. located in an ice bath, combined with 1 vol. % (percent by volume) of an AA solution (antibiotic/antimycotic solution, PAA, Pasching, Austria). […] The resultant pellet is in each case redissolved in 250 μL of complete medium and the cell count is determined. […]

The target in another experiment is VR1/TRPV1 receptor (Homo sapiens, UniProt Q8NER1). As to the kind of experiment: Inhibition of human VR1/TRPV1 following pH-stimulus. Format: cell-based. Conditions: ne = no effect, no response observed.
Another experiment has as its system male mice (NMRI). As to the kind of experiment: Formaldehyde test in mice. Format: in vivo. The following applies: 0.3 per os (dose unit not given), second phase. On the procedure: III. b. Formaldehyde Test in Mice
The investigation for determining the antinociceptive action of the compounds according to the invention is performed using the formaldehyde test on male mice (NMRI, 20 to 30 g body weight, Iffa, Credo, Belgium).
In the formaldehyde test, according to D. Dubuisson et al., Pain 1977, 4, 161-174 a distinction is drawn between the first (early) phase (0 to 15 minutes after the formaldehyde injection) and the second (late) phase (15 to 60 minutes after the formaldehyde injection). […]
Then, the nociceptive behaviour of the animals is observed and recorded continuously for an investigation period of three minutes in the second (late) phase of the formaldehyde test (21 to 24 minutes after the formaldehyde injection). Quantification of the pain behaviour proceeds by summation of the seconds in which the animals licked and bit the relevant paw during the investigation period.
The comparison is made in each case with control animals, which, instead of compounds according to the invention, received vehicle (0.9% aqueous sodium chloride soln.) before administration of the formaldehyde. On the basis of the quantification of the pain behaviour, the substance effect in the formaldehyde test is determined in percent as a change compared with the corresponding control. […]

T1 sequence (Q8NER1 whole entry): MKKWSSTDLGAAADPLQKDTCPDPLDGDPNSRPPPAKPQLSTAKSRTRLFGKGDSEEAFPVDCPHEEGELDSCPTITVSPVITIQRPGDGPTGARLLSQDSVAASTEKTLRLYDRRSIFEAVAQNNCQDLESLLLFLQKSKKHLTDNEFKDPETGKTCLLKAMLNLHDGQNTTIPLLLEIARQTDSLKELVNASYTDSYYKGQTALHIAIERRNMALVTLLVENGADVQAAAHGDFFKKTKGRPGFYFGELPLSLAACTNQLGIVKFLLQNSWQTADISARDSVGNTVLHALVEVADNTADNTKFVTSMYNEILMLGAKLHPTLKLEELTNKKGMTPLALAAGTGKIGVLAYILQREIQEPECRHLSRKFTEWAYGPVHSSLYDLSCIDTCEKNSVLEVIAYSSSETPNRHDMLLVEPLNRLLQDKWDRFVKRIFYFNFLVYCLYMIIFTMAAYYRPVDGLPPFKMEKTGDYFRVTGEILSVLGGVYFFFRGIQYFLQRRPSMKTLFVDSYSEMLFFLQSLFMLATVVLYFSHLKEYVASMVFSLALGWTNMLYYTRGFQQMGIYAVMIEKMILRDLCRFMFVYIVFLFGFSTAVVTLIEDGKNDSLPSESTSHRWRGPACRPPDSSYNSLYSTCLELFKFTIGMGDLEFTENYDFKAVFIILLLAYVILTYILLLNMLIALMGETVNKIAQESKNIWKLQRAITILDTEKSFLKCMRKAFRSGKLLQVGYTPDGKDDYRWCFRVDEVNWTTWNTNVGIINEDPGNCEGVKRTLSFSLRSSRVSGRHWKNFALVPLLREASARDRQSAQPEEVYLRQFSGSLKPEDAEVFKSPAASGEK
Sequence of VR1/TRPV1 receptor (Q8NER1 whole entry): as above
T2 sequence (O35433 whole entry): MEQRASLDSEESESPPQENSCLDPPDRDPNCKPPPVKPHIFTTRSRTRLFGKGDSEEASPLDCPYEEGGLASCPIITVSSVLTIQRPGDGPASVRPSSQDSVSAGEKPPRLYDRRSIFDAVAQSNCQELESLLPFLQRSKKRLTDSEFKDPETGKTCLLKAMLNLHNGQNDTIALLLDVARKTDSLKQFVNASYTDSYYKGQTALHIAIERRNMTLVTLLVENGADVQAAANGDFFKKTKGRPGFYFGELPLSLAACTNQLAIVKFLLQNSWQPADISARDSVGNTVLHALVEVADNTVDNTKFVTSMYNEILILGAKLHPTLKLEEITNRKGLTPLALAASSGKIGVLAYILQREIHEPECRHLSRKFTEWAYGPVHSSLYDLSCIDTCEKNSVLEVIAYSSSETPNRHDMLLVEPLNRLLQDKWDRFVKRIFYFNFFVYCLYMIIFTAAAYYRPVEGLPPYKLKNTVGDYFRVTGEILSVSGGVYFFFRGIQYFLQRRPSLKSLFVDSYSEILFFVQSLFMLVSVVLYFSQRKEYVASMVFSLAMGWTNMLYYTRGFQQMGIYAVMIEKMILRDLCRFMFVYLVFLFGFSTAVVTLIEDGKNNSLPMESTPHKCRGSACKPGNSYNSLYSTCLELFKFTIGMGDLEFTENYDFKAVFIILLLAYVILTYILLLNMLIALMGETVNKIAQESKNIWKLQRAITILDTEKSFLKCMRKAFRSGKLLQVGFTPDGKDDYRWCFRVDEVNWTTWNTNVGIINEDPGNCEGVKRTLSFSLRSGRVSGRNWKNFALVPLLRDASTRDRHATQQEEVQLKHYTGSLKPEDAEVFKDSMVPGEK

As for `O=C(Cc1ccc2c(c1)OCCO2)NCc1ccc(C(F)(F)F)nc1SC1CCCCC1` [Example 59, N-((2-(cyclohexylthio)-6-(trifluoromethyl)pyridin-3-yl)methyl)-2-(2,3-dihydrobenzo[b][1,4]dioxin-6-yl)acetamide], the pKi in experiment [1] was 8.46; in experiment [2], 8.24. The “IC50 (Human) following pH-stimulus” value at VR1/TRPV1 receptor is given as “ne”.

Consider `CC1CCN(c2nc(C(F)(F)F)ccc2CNC(=O)C(C)c2ccc3[nH]cnc3c2)CC1` (stereo not drawn) [Example 13, 2-(1H-benzoimidazol-5-yl)-N-(4-methyl-6′-trifluoromethyl-3,4,5,6-tetrahydro-2H-[1,2′]bipyridinyl-3′-ylmethyl)-propionamide], for which the pKi in experiment [1] is 8.15. The “Inhibition Formaldehyde test” value in the experiment with male mice (NMRI) is on record as 0.3 per os 25%. For the same compound, the “IC50 (Human) following pH-stimulus” value on VR1/TRPV1 receptor is “Ne”.

Take `CC1CCN(c2nc(C(F)(F)F)ccc2CNC(=O)Cc2ccc3c(c2)OCCO3)CC1` [Example 58, 2-(2,3-dihydrobenzo[b][1,4]dioxin-6-yl)-N-((2-(4-methylpiperidin-1-yl)-6-(trifluoromethyl)pyridin-3-yl)methyl)acetamide]: the pKi in experiment [1] is 7.56; in experiment [2], 7.22. At VR1/TRPV1 receptor, the “IC50 (Human) following pH-stimulus” value was “ne”.

In the case of `CC1CCN(c2nc(C(F)(F)F)ccc2CNC(=O)C(C)c2ccc3c(c2)OCO3)CC1` (stereo not drawn) [Example 60, 2-(benzo[d][1,3]dioxol-5-yl)-N-((2-(4-methylpiperidin-1-yl)-6-(trifluoromethyl)pyridin-3-yl)methyl)propanamide], the negative logarithm of the Ki (pKi) in experiment [1] is 7.59; in experiment [2], 7.34. The “IC50 (Human) following pH-stimulus” value at VR1/TRPV1 receptor was “ne”.

`CCCCOc1nc(C(C)(C)C)ccc1CNC(=O)C(C)c1ccc2[nH]cnc2c1` (stereo not drawn) [Example 23, 2-(1H-benzoimidazol-5-yl)-N-(2-butoxy-6-tert.-butyl-pyridin-3-ylmethyl)-propionamide] had a pKi in experiment [1] of 7.82. Further, in the experiment on male mice (NMRI), the “Inhibition Formaldehyde test” value came out at 0.3 per os 13%. For the same compound, on VR1/TRPV1 receptor, the “IC50 (Human) following pH-stimulus” value was “Ne”.

(Values after patent publication US8084484B2, “Vanilloid receptor ligands, pharmaceutical compositions containing them, process for making them, and use thereof for treating pain and other conditions” (Gruenenthal GmbH, priority 2007, dated 2011).)
